Reference: patent US20240270821A1, “GIP/GLP1/GCG TRI-RECEPTOR AGONISTS AND USES THEREOF” (priority 2023, published 2024)
Starred links: 1 amine or outer side, 2 acyl side, 3 side chain; linkers in the order of their positions; H or OH if unused. Non-standard residues stand in square brackets, D forms with d. Groups on a side chain read outwards from the residue. *: point of attachment. C18 diacid = O=C(O)CCCCCCCCCCCCCCCCC(=O)*; γGlu = O=C(O)[C@H](CCC(=O)[*:2])N[*:1]; αMe4Pal = C[C@](N)(Cc1ccncc1)C(=O)O; 4Pal = N[C@@H](Cc1ccncc1)C(=O)O; αMeL = CC(C)C[C@](C)(N)C(=O)O; Orn = NCCC[C@H](N)C(=O)O; AEEA = NCCOCCOCC(=O)O; Aib = CC(C)(N)C(=O)O

What was measured:
[1] = target: T1, hGIPR (Homo sapiens, UniProt P48546); experiment: Functional cAMP activity in the presence of 1% HSA; assay type: cell-based; settings: read-out: cAMP Rel EC50, hGIPR
T1 sequence (P48546 22-466): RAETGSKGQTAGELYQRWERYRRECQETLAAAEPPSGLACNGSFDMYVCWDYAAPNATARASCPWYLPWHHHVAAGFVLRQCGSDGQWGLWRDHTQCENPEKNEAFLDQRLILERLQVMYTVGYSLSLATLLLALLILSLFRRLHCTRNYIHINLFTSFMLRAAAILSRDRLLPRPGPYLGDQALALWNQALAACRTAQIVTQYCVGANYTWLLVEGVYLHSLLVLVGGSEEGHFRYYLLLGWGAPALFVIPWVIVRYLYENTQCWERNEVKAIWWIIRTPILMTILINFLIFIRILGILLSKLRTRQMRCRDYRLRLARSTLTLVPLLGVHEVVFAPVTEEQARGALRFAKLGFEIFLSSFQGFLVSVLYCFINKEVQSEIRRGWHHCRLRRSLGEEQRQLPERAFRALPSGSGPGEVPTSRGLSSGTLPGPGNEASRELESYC

[2] = target: human GLP1-R (Homo sapiens, UniProt P43220); experiment: GLP1-R internalization assay in HEK293 cells; assay type: cell-based; settings: for EC50: HEK293 cells expressing SNAP-GLP-1R, read-out: GLP1R Internalization EC50; for Internalization % TOP: normalized to maximum concentration of GLP-1 (100%)
[3] = target: human GcgR (Homo sapiens, UniProt P47871); experiment: Functional cAMP activity in the presence of 1% HSA; assay type: cell-based; settings: read-out: cAMP Rel EC50, hGcgR
[4] = target: T2, hGLP-1R (Homo sapiens, UniProt P43220); experiment: Functional cAMP activation in the presence of 0.1% casein (no HSA); assay type: cell-based; settings: in the presence of 0.1% casein (no HSA); geometric mean; read-out: Relative cAMP EC50, hGLP-1R;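 further: intracellular cAMP rise after 30 min at 37 °C read by HTRF, normalized between buffer only (0%) and maximal control ligand (100%), four-parameter variable-slope fit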
[5] = target: T1, hGIPR; experiment: as above; assay type: cell-based; settings: in the presence of 0.1% casein (no HSA); geometric mean; read-out: Relative cAMP EC50, hGIPR
[6] = target: T2, hGLP-1R; experiment: Functional cAMP activity in the presence of 1% HSA; assay type: cell-based; settings: read-out: cAMP Rel EC50, hGLP-1R
[7] = target: hGcgR (Homo sapiens, UniProt P47871); experiment: Functional cAMP activation in the presence of 0.1% casein (no HSA); assay type: cell-based; settings: in the presence of 0.1% casein (no HSA); geometric mean; read-out: Relative cAMP EC50, hGcgR;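 further: intracellular cAMP rise after 30 min at 37 °C, read by HTRF against a cAMP standard curve, scaled from buffer only (0%) to maximal control ligand response (100%)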
[8] = tested on: Intestinal organoid from Göttingen minipig jejunum tissue, 2D monolayer; experiment: Cell based in vitro permeability (Papp) assay; assay type: in vitro ADME
Description: Intestinal organoid from Göttingen minipig jejunum tissue and its 2D monolayer are generated using the protocol previously described ([…]-Thiele, […].; Wells, J. M., Optimized procedures for generating an enhanced, near physiological 2D culture system from porcine intestinal organoids. […] After 7 days of culture, organoids are dissociated into single cells by TrypLE (GIbco), and the single cell suspension is added in 24-well transparent transwell inserts (0.3 cm^2, Falcon, BD). […] Samples from the basal compartment are collected at 20 min in the presence of C10. Peptide concentrations in the apical and basal compartments are measured by LC/MS, and the apparent permeability coefficient (Papp) is calculated as previously described (Twarog, C.; Liu, K.; O'Brien, P. J.; Dawson, […] head-to-head Caco-2 assay comparison of the mechanisms of action of the intestinal permeation enhancers: SNAC and sodium caprate (C10).
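Wherever Relative cAMP EC50, hGIPR is given: intracellular cAMP rise after 30 min at 37 °C read by HTRF against a standard curve, scaled between buffer alone (0%) and top control ligand concentration (100%), four-parameter fit.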

Sequence of human GLP1-R (P43220 24-463): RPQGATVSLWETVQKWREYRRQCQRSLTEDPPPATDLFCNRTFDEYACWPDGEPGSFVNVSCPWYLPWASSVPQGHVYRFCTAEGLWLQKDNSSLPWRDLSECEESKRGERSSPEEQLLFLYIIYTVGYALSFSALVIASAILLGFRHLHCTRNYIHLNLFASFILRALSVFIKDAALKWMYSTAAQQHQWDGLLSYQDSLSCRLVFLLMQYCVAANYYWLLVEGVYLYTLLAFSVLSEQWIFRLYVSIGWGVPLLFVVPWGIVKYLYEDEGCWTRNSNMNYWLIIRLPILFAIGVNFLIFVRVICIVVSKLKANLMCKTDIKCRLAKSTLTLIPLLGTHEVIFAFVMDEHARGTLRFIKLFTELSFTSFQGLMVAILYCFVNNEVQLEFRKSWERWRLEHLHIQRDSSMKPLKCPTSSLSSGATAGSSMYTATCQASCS
T2 sequence (P43220 24-463): as above
Sequence of hGcgR (P47871 26-477): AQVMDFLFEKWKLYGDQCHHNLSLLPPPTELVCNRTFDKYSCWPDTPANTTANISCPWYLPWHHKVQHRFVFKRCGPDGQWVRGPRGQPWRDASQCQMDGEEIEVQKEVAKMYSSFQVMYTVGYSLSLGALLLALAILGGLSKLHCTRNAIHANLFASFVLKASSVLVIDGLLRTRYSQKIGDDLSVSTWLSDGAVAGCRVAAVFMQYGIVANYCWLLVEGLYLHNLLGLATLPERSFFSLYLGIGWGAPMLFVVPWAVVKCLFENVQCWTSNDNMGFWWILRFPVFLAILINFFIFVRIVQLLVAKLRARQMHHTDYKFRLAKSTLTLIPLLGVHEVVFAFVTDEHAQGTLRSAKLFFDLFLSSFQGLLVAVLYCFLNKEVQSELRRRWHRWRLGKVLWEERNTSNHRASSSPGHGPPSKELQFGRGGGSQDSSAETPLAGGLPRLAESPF
Sequence of human GcgR (P47871 26-477): as above

Molecule	EC50 [1] [nM]	EC50 [2] [nM]	Internalization % TOP [2] [%]	EC50 [3] [nM]	EC50 [4] [nM]	EC50 [5] [nM]	EC50 [6] [nM]	EC50 [7] [nM]	Relative Papp (Compared to internal standard) [8]
CC[C@H](C)[C@H](NC(=O)[C@H](Cc1ccccc1)NC(=O)[C@H](C)NC(=O)C(C)(C)NC(=O)[C@H](CCC(N)=O)NC(=O)[C@H](C)NC(=O)[C@H](CCCCNC(=O)COCCOCCNC(=O)CC[C@H](NC(=O)CCCCCCCCCCCCCCCCC(=O)O)C(=O)O)NC(=O)[C@H](CCCCN)NC(=O)[C@H](CC(=O)O)NC(=O)[C@H](CC(C)C)NC(=O)[C@](C)(CC(C)C)NC(=O)[C@H](CCCN)NC(=O)[C@H](CO)NC(=O)[C@H](Cc1ccccc1)NC(=O)[C@H](CC(=O)O)NC(=O)[C@H](CO)NC(=O)[C@@H](NC(=O)[C@H](Cc1ccccc1)NC(=O)[C@@H](NC(=O)CNC(=O)[C@H](CCC(N)=O)NC(=O)C(C)(C)NC(=O)[C@@H](N)Cc1ccc(O)cc1)[C@@H](C)O)[C@@H](C)O)C(=O)N[C@@H](CCC(=O)O)C(=O)N[C@@H](Cc1ccc(O)cc1)C(=O)N[C@@H](CC(C)C)C(=O)N[C@@H](CC(C)C)C(=O)N[C@@H](CCC(=O)O)C(=O)N[C@H](C)C(=O)NCC(=O)N1CCC[C@H]1C(=O)N[C@@H](CO)C(=O)N[C@@H](CO)C(=O)NCC(=O)N[C@@H](C)C(=O)N1CCC[C@H]1C(=O)N1CCC[C@H]1C(=O)N1CCC[C@H]1C(=O)N[C@@H](CO)C(=O)NCC(=O)N[C@H](C(N)=O)[C@@H](C)O [Example 210]	23.5	80.2	49.2	501	1.44	0.153	264	2.81	0.06
H-Y[Aib]QGTFTSDFS[Orn][αMeL]LDKK([AEEA-AEEA-γGlu-C18 diacid])AQ[Aib]AFIEWLLEGGHSSGAPPPSGE-NH2 [Example 169]	21.5	178	49.4	439	6.17	0.209	216	11.7	0.12
H-Y[Aib]QGTFTSDFS[Orn][αMeL]LDKK([AEEA-AEEA-γGlu-C18 diacid])AQ[Aib]AFIEYLLE[Aib]GHSSGAPPPSGE-NH2 [Example 186]	18	124	41.1	1280	5.26	0.107	690	4.67	0.10
H-Y[Aib]QGTFTSDFS[Orn][αMeL]LDKK([AEEA-AEEA-γGlu-C18 diacid])AQ[Aib]AFIEYLLE[Aib]GPSSGAPPPSGT-NH2 [Example 165]	18.6	57.5	44.5	1250	6.52	0.0956	808	4.47	0.09
H-Y[Aib]QGTFTSDFS[Orn][αMeL]LDKK([AEEA-AEEA-γGlu-C18 diacid])AQ[Aib]AFIEYLLE[Aib]G[4Pal]SSGAPPPSGE-NH2 [Example 189]	22.2	103	45.8	853	4.46	0.0695	423	6.28	0.17
H-Y[Aib]QGTFTSDFS[Orn][αMeL]LDKK([AEEA-γGlu-C18 diacid])AQ[Aib]AFIEWLLEGGPSSGAPPPTGS-NH2 [Example 250]	11.7	97	45	201	2.08	0.154	194	3.81	0.11
H-Y[Aib]QGTFTSDFS[Orn][αMeL]LDKK([AEEA-γGlu-C18 diacid])AQ[Aib]AFIEWLLEGGSSSGAPPPSGT-NH2 [Example 174]	20.8	123	52.8	307	2.33	0.198	208	4.24	0.12
H-Y[Aib]QGTFTSDFS[Orn][αMeL]LDKK([AEEA-γGlu-C18 diacid])AQ[Aib]AFIEYLLE[Aib]GHSSGAPPPSGS-NH2 [Example 241]	9.36	64.4	37.6	543	2.3	0.0748	264	2.71	0.10
H-Y[Aib]QGTFTSDFS[Orn][αMeL]LDKK([AEEA-γGlu-C18 diacid])AQ[Aib]AFIEYLLE[Aib]GPSS[Aib]APPPSGS-NH2 [Example 238]	8.78	32.1	38.2	334	2.71	0.0909	262	2.78	0.06
H-Y[Aib]QGTFTSDFS[Orn][αMeL]LDKK([AEEA-γGlu-C18 diacid])AQ[Aib]AFIEYLLE[Aib]G[4Pal]SSGAPPPSGS-NH2 [Example 242]	5.94	56	38.2	484	3.42	0.0916	242	3.5	0.07
H-Y[Aib]QGTFTSDFS[Orn][αMeL]LDKK([AEEA-γGlu-C18 diacid])AQ[Aib]AFIEYLLE[dA]GPSSGAPPPSGS-NH2 [Example 209]	23.3	83.1	41.2	433	1.78	0.129	276	3.08	0.08
H-Y[Aib]QGTFTSDFS[Orn][αMeL]LDKK([AEEA-γGlu-C18 diacid])AQ[Aib]AFIEYLLE[dA]GPSSGAPPPSG[4Pal]-NH2 [Example 211]	20.6	57.4	26.9	370	1.23	0.116	234	2.05	0.06
H-Y[Aib]QGTFTSDFS[Orn][αMeL]LDKK([AEEA-γGlu-C18 diacid])AQ[Aib]AFIEYLLE[dA]GPSS[Aib]APPPSGT-NH2 [Example 214]	15.1	50.1	41.7	302	1.22	0.103	186	2.49	0.07
H-Y[Aib]QGTFTSDFS[Orn][αMeL]LDKK([γGlu-AEEA-γGlu-C18 diacid])AQ[Aib]AFIEYLLE[Aib]GPSSGAPPPSGS-NH2 [Example 193]	12.7	132	50.7	1120	5.19	0.0609	473	4.51	0.17
H-Y[Aib]QGTFTSDYSR[αMeL]LDKK([AEEA-γGlu-C18 diacid])AQ[Aib]AFIEYLLEGGESSGAPPPSGS-NH2 [Example 361]	46.3	50.4	73	987	2.08	0.214	376	2.73	0.10
H-Y[Aib]QGTFTSD[4Pal]SQ[αMeL]LDKK([AEEA-γGlu-C18 diacid])AQ[αMe4Pal]AFIEYLIE[Aib]GESSGAPPPSGE-NH2 [Example 227]	39.7	114	59.4	937	2.34	0.17	418	4.22	0.42
